According to publication PMC5768801, “The PII signaling protein from red algae represents an evolutionary link between cyanobacterial and Chloroplastida PII proteins” (Scientific Reports, 2018):
“Also recorded” adds a separate entry of the source.

Tests used:
SyPII = target: T1, SyPII (Synechococcus elongatus, UniProt P0A3F4); assay: ITC binding of small effector molecules to cyanobacterial SyPII; parameters: species or system Synechococcus elongatus PCC 7942
T1 construct: Strep-tag; made in house
Method: (§1) To gain additional insights into the ligand binding properties of PpPII in comparison to cyanobacterial and chloroplastid PII proteins, isothermal titration calorimetry (ITC) experiments were performed using highly purified Strep-tagged or His-tagged recombinant PpPII, SyPII, CrPII, and PhyscoPII proteins (Supplementary Fig. S1) with different protein/ligand/ concentrations to determine the best fitting conditions of the binding model. The titration experiments were repeated with different protein preparations to confirm the reproducibility of the results. The raw isothermal data were fitted into one-binding site as well as three-sequential binding sites to define the best fitting model. Fitting using a one binding site model states an average Kd value for all available binding sites and the mean of the stoichiometry of bound ligands.
(§2) The ITC experiments were done using a VP-ITC microcalorimeter (MicroCal, LCC). All details for determination of binding constants for small effector molecules using ITC are fully described in the supplementary information. Heat isotherms of the dilution of the ligand in the cell buffer were collected in a blank run for each experiment in the absence of protein. The binding isotherms were calculated from received data and fitted to one-site and three-sequential binding sites models using the MicroCal ORIGIN software (Northampton) as described. All titrations were performed in duplicates with different purification batches of recombinant PII proteins. The association binding constant (Ka) was generated from the software by de-convolution and curve fitting. For calculation of dissociation constant (Kd), the Ka value was inversed.
(§3) Supplementary Information […]
(§4) Determination of Binding Constants for Small Effector Molecules using Isothermal […]
(§5) The binding of the small effector molecules to the recombinant PII proteins was tested using isothermal titration calarmity (ITC); VP-ITC microcalorimeter (MicroCal). All titrations were performed on 20°C using […] injection syringe with injection 6 µl or 10 µl of the tested ligands for 45 or 29 times, respectively into the cell (1.4 ml) with continuous stirring at 155 rpm. All tested ligands were high grade, prepared freshly in the same buffer of the protein and purchased from Sigma-Aldrich. Heat isotherms for the dilution of the ligand in the cell buffer were collected in a blank run in the absence of protein. The received calorimetric data were analyzed using MicroCal Origin software and fitted into one-site and three-sequential binding sites models, as indicated by the manufacture for calculation of binding isotherms9. For data reproducibility, the titrations were performed in duplicates with different purification batches of recombinant PII proteins. The association binding constant (Ka) was generated from the software by de-convolution and curve fitting. For calculation of dissociation constant (Kd), the Ka value was inversed. […]
For determination the binding isotherms of cyanobacterial SyPII protein, a strep-tagged recombinant protein (20 µM trimeric concentration) was overexpressed and used as described previously9, 15, in a buffer composed of 10 mM Hepes-NaOH, 50 mM KCl, 50 mM NaCl, and 1

[1] = target: ScNAGK in the presence of PpPII (Porphyra purpurea, UniProt P51254); assay: AGPR-coupled NAGK activity assay with PpPII; type: biochemical, Synechocystis sp. PCC 6803; Porphyra purpurea; details: 4 mM ADP with 1 mM ATP
Text: All available structural information of PII proteins revelas that ATP and ADP bind to the same binding sites[2],[7]. When ATP and ADP are simultaneously present, they will compete for binding to the PII trimer. Since, the ATP/ADP binding site of the red algal PpPII protein is highly conserved (Fig. 1), competition between the nucleotides will occur. Since the activation of NAGK by PII is dependent on the ATP-ligated state of PII[9] and ADP inhibits PII-NAGK complex formation[9],[31], competition between ATP/ADP for PII binding can be monitored by measuring NAGK activity[31] under different ATP/ADP ratios. For this assay, we used an AGPR-coupled activity assay for NAGK[33], which allows measurement of NAGK activity in presence of ADP. Different concentrations of ADP were added to reaction mixtures containing either 1 mM or 2 mM ATP, in the absence or presence of PpPII (Fig. 8). Addition of ADP led to a monotonical and shallow decrease in the activity of ScNAGK at both fixed ATP concentration. […]
The change in NADPH absorbance was recorded at 340 nm as described previously[31],[33], in a reaction buffer composed of 50 mM potassium phosphate (pH 7.0), 50 mM KCl, 20 mM MgCl2, 0.2 mM NADPH and 0.5 mM DTT. […] The reaction was started by the addition of ScNAGK and was recorded for 10 min with a spectrophotometer (SPECORD 210 PLUS, Analytik Jena). Kinetic constants were calculated as descried above.

PhyscoPII = assay: ITC binding of small effector molecules to plant-moss PhyscoPII; parameters: species or system Physcomitrella patens
Method: as §1, §2, §3, §4
The binding of the small effector molecules to the recombinant PII proteins was tested using isothermal titration calarmity (ITC); VP-ITC microcalorimeter (MicroCal). All titrations were performed on 20°C using […] injection syringe with injection 6 µl or 10 µl of the tested ligands for 45 or 29 times, respectively into the cell (1.4 ml) with continuous stirring at 155 rpm. All tested ligands were high grade, prepared freshly in the same buffer of the protein and purchased from Sigma-Aldrich. Heat isotherms for the dilution of the ligand in the cell buffer were collected in a blank run in the absence of protein. The received calorimetric data were analyzed using MicroCal Origin software and fitted into one-site and three-sequential binding sites models, as indicated by the manufacture for calculation of binding isotherms9. For data reproducibility, the titrations were performed in duplicates with different purification batches of recombinant PII proteins. The association binding constant (Ka) was generated from the software by de-convolution and curve fitting. For calculation of dissociation constant (Kd), the Ka value was inversed.
5 mM MgCl2, 0.5 mM EDTA, and 10% glycerol (pH 7.6). […]
For determination the binding isotherms of plant-moss PhyscoPII protein, a strep-tagged recombinant protein (5 or 6 µM trimeric concentration) was used in system composed of 20 mM

CrPII = assay: ITC binding of small effector molecules to green algal CrPII; parameters: species or system Chlamydomonas reinhardtii
Method: as §1, §2, §3, §4, §5

T1 sequence (P0A3F4 whole entry): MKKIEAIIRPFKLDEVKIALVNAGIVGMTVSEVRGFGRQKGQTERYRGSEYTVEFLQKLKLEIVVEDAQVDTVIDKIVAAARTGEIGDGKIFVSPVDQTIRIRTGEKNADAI
Chain of ScNAGK in the presence of PpPII (P51254 whole entry): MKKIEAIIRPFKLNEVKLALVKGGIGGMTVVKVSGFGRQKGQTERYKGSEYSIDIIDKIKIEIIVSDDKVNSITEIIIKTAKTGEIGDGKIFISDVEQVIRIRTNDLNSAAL

Nc1ncnc2c1ncn2[C@@H]1O[C@H](COP(=O)(O)OP(=O)(O)O)[C@@H](O)[C@H]1O [ADP]
ADP concentration at which the enthalpy reached a maximum (biphasic titration curve) (SyPII; ADP titrated in the presence of 1 mM 2-OG): 80.0 ± 7.1 µM | Kd (SyPII; Average Kd (one-site binding model), in presence 2-OG (1 mM) and 150 µM ADP): 45.8 ± 44 µM | Kd (SyPII; Kd1 (three-sites binding model), in presence 2-OG (1 mM) and 150 µM ADP): 10.7 ± 1.9 µM | Kd (SyPII; Kd2 (three-sites binding model), in presence 2-OG (1 mM) and 150 µM ADP): 26.4 ± 4.2 µM | Kd (SyPII; Kd3 (three-sites binding model), in presence 2-OG (1 mM) and 150 µM ADP): 101 ± 103 µM | N, number of calculated binding sites (one-site binding model) (SyPII; in presence 2-OG (1 mM) and 150 µM ADP): 4.0 | ScNAGK activity in the presence of PpPII at the highest ADP/ATP ratio [1]: as low as ScNAGK activity in the absence of PpPII | Average Kd (one-site binding model) (PhyscoPII; in presence 2-OG): No binding | Kd1 (three-sites binding model) (PhyscoPII; in presence 2-OG): No binding | Kd2 (three-sites binding model) (PhyscoPII; in presence 2-OG): No binding | Kd3 (three-sites binding model) (PhyscoPII; in presence 2-OG): No binding | Average Kd (one-site binding model) (PhyscoPII; titrant alone): unable to detect any binding; also recorded: No binding | Kd1 (three-sites binding model) (PhyscoPII; titrant alone): No binding | Kd2 (three-sites binding model) (PhyscoPII; titrant alone): No binding | Kd3 (three-sites binding model) (PhyscoPII; titrant alone): No binding | Average Kd (one-site binding model) (CrPII; in presence 2-OG (2 mM)): no ADP binding | Kd1 (three-sites binding model) (CrPII; in presence 2-OG (2 mM)): No binding | Kd2 (three-sites binding model) (CrPII; in presence 2-OG (2 mM)): No binding | Kd3 (three-sites binding model) (CrPII; in presence 2-OG (2 mM)): No binding | Average Kd (one-site binding model) (CrPII; titrant alone): unable to notice any binding; also recorded: No binding | Kd1 (three-sites binding model) (CrPII; titrant alone): No binding | Kd2 (three-sites binding model) (CrPII; titrant alone): No binding | Kd3 (three-sites binding model) (CrPII; titrant alone): No binding
